Measurements from paper PMC4890880 (ACS infectious diseases, 2016).
Like-named read-outs stand apart in the source and are kept apart here.

Legend:
HepG2-A16-CD81EGFP cells = conditions: for IC50: read-out: Tox_IC50, HepG2 cytotoxicity
[1] = tested on: Plasmodium berghei (Pb-Luc) exoerythrocytic-stage parasites; conditions: for IC50: read-out: PbLuc_IC50
[2] = sheet 2nd round, maximal inhibition in dose response
[3] = first series of columns, fraction of control
[4] = second series of columns (replicate), fraction of control
[5] = 2nd round, maximal inhibition in dose series
[6] = first series of dose-response columns, fraction of control
[7] = first series, fraction of control
[8] = sheet 2nd round, Broad compounds, dose response
[9] = second series of dose-response columns, fraction of control
[10] = second series, fraction of control

C[C@H](CO)N1C[C@H](C)[C@H](CN(C)S(=O)(=O)c2ccc(F)cc2)OCCCC[C@H](C)Oc2ccc(N(C)C)cc2C1=O [BRD-K59130783-001-01-1]
IC50 (HepG2-A16-CD81EGFP cells; sheet 2nd round): > 10 µM
Tox_max_inhibition (%) (HepG2-A16-CD81EGFP cells; [2]): 7%
normalized signal at concentration 0.000508053 [1, 3]: 0.8293
normalized signal at concentration 0.00152416 [1, 3]: 0.8148
normalized signal at concentration 0.00457247 [1, 3]: 0.8395
normalized signal at concentration 0.0137174 [1, 3]: 0.9506
normalized signal at concentration 0.0411523 [1, 3]: 0.8723
normalized signal at concentration 0.123457 [1, 3]: 1.0641
normalized signal at concentration 0.37037 [1, 3]: 0.9674
normalized signal at concentration 1.11111 [1, 3]: 0.9129
normalized signal at concentration 3.33333 [1, 3]: 0.9251
normalized signal at concentration 10 [1, 3]: 0.7483
IC50 ([1]; sheet 2nd round, Pb-Luc exoerythrocytic stage, 10-point dose response, top concentration 10): > 10 µM
normalized signal at concentration 0.000508053 [1, 4]: 1.007
normalized signal at concentration 0.00152416 [1, 4]: 0.9488
normalized signal at concentration 0.00457247 [1, 4]: 0.9241
normalized signal at concentration 0.0137174 [1, 4]: 0.9817
normalized signal at concentration 0.0411523 [1, 4]: 0.8684
normalized signal at concentration 0.123457 [1, 4]: 0.9044
normalized signal at concentration 0.37037 [1, 4]: 1.051
normalized signal at concentration 1.11111 [1, 4]: 0.8044
normalized signal at concentration 3.33333 [1, 4]: 0.946
normalized signal at concentration 10 [1, 4]: 0.5139
PbLuc_max_inhibition (%) [1, 2]: 49%

C[C@@H]1CN([C@H](C)CO)C(=O)c2cccc(NC(=O)c3ccc(-c4nccs4)cc3)c2O[C@H]1CN(C)C(=O)Nc1ccc(C(F)(F)F)cc1 [BRD-K64517877-001-01-9]
Tox_max_inhibition (%) (HepG2-A16-CD81EGFP cells; [5]): 9%
IC50 (HepG2-A16-CD81EGFP cells; 2nd round, unit inferred): > 10 µM
PbLuc_max_inhibition (%) [1, 5]: 27%
normalized signal at 0.000508053 (first series) ([1]; concentration 0.000508053, first replicate series, fraction of control): 0.8077
normalized signal at 0.000508053 (second series) ([1]; concentration 0.000508053, second replicate series, fraction of control): 1.002
normalized signal at 0.00152416 (first series) ([1]; concentration 0.00152416, first replicate series, fraction of control): 0.8666
normalized signal at 0.00152416 (second series) ([1]; concentration 0.00152416, second replicate series, fraction of control): 0.9304
normalized signal at 0.00457247 (first series) ([1]; concentration 0.00457247, first replicate series, fraction of control): 0.8925
normalized signal at 0.00457247 (second series) ([1]; concentration 0.00457247, second replicate series, fraction of control): 0.7834
normalized signal at 0.0137174 (first series) ([1]; concentration 0.0137174, first replicate series, fraction of control): 1.197
normalized signal at 0.0137174 (second series) ([1]; concentration 0.0137174, second replicate series, fraction of control): 0.7634
normalized signal at 0.0411523 (first series) ([1]; concentration 0.0411523, first replicate series, fraction of control): 0.9517
normalized signal at 0.0411523 (second series) ([1]; concentration 0.0411523, second replicate series, fraction of control): 0.9123
normalized signal at 0.123457 (first series) ([1]; concentration 0.123457, first replicate series, fraction of control): 1.1239
normalized signal at 0.123457 (second series) ([1]; concentration 0.123457, second replicate series, fraction of control): 0.9202
normalized signal at 0.37037 (first series) ([1]; concentration 0.37037, first replicate series, fraction of control): 0.912
normalized signal at 0.37037 (second series) ([1]; concentration 0.37037, second replicate series, fraction of control): 0.776
normalized signal at 1.11111 (first series) ([1]; concentration 1.11111, first replicate series, fraction of control): 0.8174
normalized signal at 1.11111 (second series) ([1]; concentration 1.11111, second replicate series, fraction of control): 0.8082
normalized signal at 3.33333 (first series) ([1]; concentration 3.33333, first replicate series, fraction of control): 0.9935
normalized signal at 3.33333 (second series) ([1]; concentration 3.33333, second replicate series, fraction of control): 0.7269
normalized signal at 10 (first series) ([1]; concentration 10, first replicate series, fraction of control): 1.005
normalized signal at 10 (second series) ([1]; concentration 10, second replicate series, fraction of control): 0.7551
IC50 ([1]; 2nd round, Broad DOS compounds, unit not printed (dose series head 10 to 0.000508053)): > 10 µM

C[C@@H]1CN([C@@H](C)CO)C(=O)c2cccc(NC(=O)C3CC3)c2O[C@@H]1CN(C)C(=O)Nc1ccc(C(F)(F)F)cc1 [BRD-K19818397-001-01-8]
IC50 (HepG2-A16-CD81EGFP cells; sheet 2nd round): > 10 µM
Tox_max_inhibition (%) (HepG2-A16-CD81EGFP cells; [2]): 16%
normalized signal at concentration 10 [1, 6]: 1.071
normalized signal at concentration 0.000508053 [1, 7]: 1.034
normalized signal at concentration 0.00152416 [1, 7]: 0.8006
normalized signal at concentration 0.00457247 [1, 7]: 1.0648
normalized signal at concentration 0.0137174 [1, 7]: 1.106
normalized signal at concentration 0.0411523 [1, 7]: 1.032
normalized signal at concentration 0.123457 [1, 7]: 1.068
normalized signal at concentration 0.37037 [1, 7]: 0.8949
normalized signal at concentration 1.11111 [1, 7]: 0.9694
normalized signal at concentration 3.33333 [1, 7]: 1.103
IC50 [1, 8]: > 10 µM
normalized signal at concentration 10 [1, 9]: 1.03
normalized signal at concentration 0.000508053 [1, 10]: 1.064
normalized signal at concentration 0.00152416 [1, 10]: 1.02
normalized signal at concentration 0.00457247 [1, 10]: 1.098
normalized signal at concentration 0.0137174 [1, 10]: 0.9383
normalized signal at concentration 0.0411523 [1, 10]: 0.9903
normalized signal at concentration 0.123457 [1, 10]: 1.126
normalized signal at concentration 0.37037 [1, 10]: 1.0101
normalized signal at concentration 1.11111 [1, 10]: 1.172
normalized signal at concentration 3.33333 [1, 10]: 1.008
PbLuc_max_inhibition (%) [1, 2]: 20%

Cc1cccc(-c2ccc(C3[C@@H]4CN(C(=O)CN(C)C)C[C@H]3N4)cc2)c1 (stereo partly drawn) [BRD-K25161260-019-01-1]
IC50 (HepG2-A16-CD81EGFP cells; sheet 2nd round): > 10 µM
Tox_max_inhibition (%) (HepG2-A16-CD81EGFP cells; [2]): 5.5%
normalized signal at concentration 10 [1, 6]: 0.87
normalized signal at concentration 0.000508053 [1, 7]: 0.66
normalized signal at concentration 0.00152416 [1, 7]: 0.79
normalized signal at concentration 0.00457247 [1, 7]: 0.92
normalized signal at concentration 0.0137174 [1, 7]: 0.97
normalized signal at concentration 0.0411523 [1, 7]: 0.91
normalized signal at concentration 0.123457 [1, 7]: 0.95
normalized signal at concentration 0.37037 [1, 7]: 0.78
normalized signal at concentration 1.11111 [1, 7]: 0.60
normalized signal at concentration 3.33333 [1, 7]: 0.90
IC50 [1, 8]: > 10 µM
normalized signal at concentration 10 [1, 9]: 0.87
normalized signal at concentration 0.000508053 [1, 10]: 0.94
normalized signal at concentration 0.00152416 [1, 10]: 0.94
normalized signal at concentration 0.00457247 [1, 10]: 1.11
normalized signal at concentration 0.0137174 [1, 10]: 1.12
normalized signal at concentration 0.0411523 [1, 10]: 1.00
normalized signal at concentration 0.123457 [1, 10]: 1.11
normalized signal at concentration 0.37037 [1, 10]: 0.98
normalized signal at concentration 1.11111 [1, 10]: 0.83
normalized signal at concentration 3.33333 [1, 10]: 0.97
PbLuc_max_inhibition (%) [1, 2]: 40%
